According to patent publication US20240024514A1, “RECOMBINANT ADENO-ASSOCIATED VIRUSES WITH ENHANCED LIVER TROPISM AND USES THEREOF” (priority 2020, published 2024):

What was measured:
[1] = test system: HBV HBsAg; assay: suppression of HBV HBsAg in HepG2.2.15 cells; assay type: cell-based, Hepatitis B virus; conditions: 1 ug/mL
Experimental: (§1) scAAV2/X-H1-shRNA-intron2 and scAAV2/8-H1-shRNA-intron2 were used to infect HepG2.2.15 cells with increased Multiplicity of Infection (MOI). The levels of HBV HBeAg, HBV HBsAg, and HBV DNA in samples were measured by HBV HBeAg diagnostic kit (Beijing Wantai Biopharmaceuticals Ltd. Co.), HBV HBsAg diagnostic kit (Beijing Wantai Biopharmaceuticals Ltd. Co.), and HBV nucleotide quantification kit (QIAGEN), respectively. 1 ug/mL of Lamivudine (LAM) was used as a positive control in the experiments. scAAV2/X-H1-NC-intron2 (X-NC) and scAAV2/8-H1-NC-intron2 (8-NC) were used as negative controls. […] The sample was collected every day for nine days and analyzed for the levels of HBeAg, HbsAg, and HBV DNA.

[2] = test system: HBV DNA; assay: HBV DNA in HBV transgenic mice; assay type: in vivo; conditions: blood, LAM 150 mg/kg, ETV 3.2 mg/kg, rAAV 3 × 10^10 vg/animal
Experimental: (§2) scAAV2/X-H1-shRNA-intron2 and scAAV2/8-H1-shRNA-intron2 were administered to HBV transgenic mice (Beijing Vitalstar Biotechnology Co., Ltd, B6-Tg HBV/Vst; C57BL/6-HBV) via intravenous injection, respectively. Epivir® (Lamivudine) and Baraclude® (Entecavir) were used as controls. Blood was collected on days 0, 7, 14, 21, 28, 35, 56, 84, 112, 140, 168, 196, 224, and 252, centrifuged, and assayed for the level of HBsAg, HBeAg, and HBV DNA.

[3] = test system: HBV DNA; assay: suppression of HBV DNA in HepG2.2.15 cells; assay type: cell-based, Hepatitis B virus; conditions: 1 ug/mL
Experimental: as §1

[4] = test system: HBsAg; assay: HBsAg in HBV transgenic mice; assay type: in vivo; conditions: blood, LAM 150 mg/kg, ETV 3.2 mg/kg, rAAV 3 × 10^10 vg/animal
Experimental: as §2

[5] = test system: HBV HBeAg; assay: suppression of HBV HBeAg in HepG2.2.15 cells; assay type: cell-based, Hepatitis B virus; conditions: 1 ug/mL
Experimental: as §1

[6] = test system: HBeAg; assay: HBeAg in HBV transgenic mice; assay type: in vivo; conditions: blood, ETV 3.2 mg/kg, rAAV 3 × 10^10 vg/animal
Experimental: as §2

Nc1ccn([C@@H]2CS[C@H](CO)O2)c(=O)n1 [Lamivudine]
level of HBsAg ([1]; D0): 1
level of HBsAg ([1]; D1): 0.7085
level of HBsAg ([1]; D2): 1.069
level of HBsAg ([1]; D3): 0.8838
level of HBsAg ([1]; D4): 0.8549
level of HBsAg ([1]; D5): 0.9837
level of HBsAg ([1]; D6): 1.128
level of HBsAg ([1]; D7): 1.284
level of HBsAg ([1]; D8): 1.324
level of HBsAg ([1]; D9): 0.7175
HBV DNA Levels ([2]; D0): 1
HBV DNA Levels ([2]; D7): 1.3
HBV DNA Levels ([2]; D14): 0.69
HBV DNA Levels ([2]; D21): 0.49
HBV DNA Levels ([2]; D28): 0.87
HBV DNA Levels ([2]; D35): 0.72
HBV DNA Levels ([2]; D56): 0.97
HBV DNA Levels ([2]; D84): 0.43
HBV DNA Levels ([2]; D112): 1.64
HBV DNA Levels ([2]; D140): 0.92
HBV DNA Levels ([2]; D168): 0.63
HBV DNA Levels ([2]; D196): 0.18
HBV DNA Levels ([2]; D224): 0.12
HBV DNA Levels ([2]; D252): 0.23
level of HBV DNA ([3]; D0): 1
level of HBV DNA ([3]; D1): 0.6797
level of HBV DNA ([3]; D2): 0.358
level of HBV DNA ([3]; D3): 0.357
level of HBV DNA ([3]; D4): 0.1907
level of HBV DNA ([3]; D5): 0.05735
level of HBV DNA ([3]; D6): 0.02341
level of HBV DNA ([3]; D7): 0.04001
level of HBV DNA ([3]; D8): 0.02104
level of HBV DNA ([3]; D9): 0.006153
HBsAg Levels ([4]; D0): 1
HBsAg Levels ([4]; D7): 1
HBsAg Levels ([4]; D14): 0.98
HBsAg Levels ([4]; D21): 1.01
HBsAg Levels ([4]; D28): 0.96
HBsAg Levels ([4]; D35): 1.23
HBsAg Levels ([4]; D56): 0.84
HBsAg Levels ([4]; D84): 0.88
HBsAg Levels ([4]; D112): 0.5
HBsAg Levels ([4]; D140): 0.98
HBsAg Levels ([4]; D168): 1.1
HBsAg Levels ([4]; D196): 0.82
HBsAg Levels ([4]; D224): 0.76
HBsAg Levels ([4]; D252): 0.46
level of HBeAg ([5]; D0): 1
level of HBeAg ([5]; D1): 1.323
level of HBeAg ([5]; D2): 0.716
level of HBeAg ([5]; D3): 0.9612
level of HBeAg ([5]; D4): 1.035
level of HBeAg ([5]; D5): 1.916
level of HBeAg ([5]; D6): 0.9979
level of HBeAg ([5]; D7): 1.148
level of HBeAg ([5]; D8): 0.9362
level of HBeAg ([5]; D9): 0.5632

C=C1[C@H](CO)[C@@H](O)C[C@@H]1n1cnc2c(=O)[nH]c(N)nc21 [ETV, Entecavir]
HBeAg Levels ([6]; D0): 130.7 PEIU/mL
HBeAg Levels ([6]; D7): 138.6 PEIU/mL
HBeAg Levels ([6]; D14): 92.1 PEIU/mL
HBeAg Levels ([6]; D21): 66.5 PEIU/mL
HBeAg Levels ([6]; D28): 78.3 PEIU/mL
HBeAg Levels ([6]; D35): 48.2 PEIU/mL
HBeAg Levels ([6]; D56): 131.4 PEIU/mL
HBeAg Levels ([6]; D84): 105.1 PEIU/mL
HBeAg Levels ([6]; D112): 133.8 PEIU/mL
HBeAg Levels ([6]; D140): 178.5 PEIU/mL
HBeAg Levels ([6]; D168): 125.9 PEIU/mL
HBeAg Levels ([6]; D196): 150.5 PEIU/mL
HBeAg Levels ([6]; D224): 123.5 PEIU/mL
HBeAg Levels ([6]; D252): 155.1 PEIU/mL
HBV DNA Levels ([2]; D0): 1
HBV DNA Levels ([2]; D7): 5.7
HBV DNA Levels ([2]; D14): 8.68
HBV DNA Levels ([2]; D21): 0.66
HBV DNA Levels ([2]; D28): 1.24
HBV DNA Levels ([2]; D35): 1.08
HBV DNA Levels ([2]; D56): 1.17
HBV DNA Levels ([2]; D84): 1.1
HBV DNA Levels ([2]; D112): 2.24
HBV DNA Levels ([2]; D140): 1.91
HBV DNA Levels ([2]; D168): 1.79
HBV DNA Levels ([2]; D196): 2.17
HBV DNA Levels ([2]; D224): 2.48
HBV DNA Levels ([2]; D252): 1.42
HBsAg Levels ([4]; D0): 1
HBsAg Levels ([4]; D7): 1.52
HBsAg Levels ([4]; D14): 1.51
HBsAg Levels ([4]; D21): 1.08
HBsAg Levels ([4]; D28): 1.55
HBsAg Levels ([4]; D35): 1.8
HBsAg Levels ([4]; D56): 1.21
HBsAg Levels ([4]; D84): 1.18
HBsAg Levels ([4]; D112): 0.43
HBsAg Levels ([4]; D140): 1.04
HBsAg Levels ([4]; D168): 1.23
HBsAg Levels ([4]; D196): 1.48
HBsAg Levels ([4]; D224): 1.16
HBsAg Levels ([4]; D252): 0.72
